According to patent US12441690B2, “Benzamide derivative compound, method for preparing same, and pharmaceutical composition for treating or preventing inflammatory disease containing same as active ingredient” (SEOUL NATIONAL UNIVERSITY R&DB FOUNDATION, priority 2017, dated 2025):

Legend:
[1] = target: PDE4B GFP fusion protein (human PDE4B2A) (Homo sapiens (Human), UniProt Q07343); assay: PDE4B GFP fusion protein-inhibitor assay in HEK-293 cells; type: cell-based
Procedure: To evaluate the intracellular enzyme inhibitory activity of the compounds of Examples 1 and 25, PDE4B GFP fusion protein-inhibitor assay was performed using GFP (green fluorescent protein).
The DNA complementary to human PDE4B2A was amplified by PCR using the DNA genome extracted from the human blood sample (QIAamp DNA Blood Mini Kit, Qiagen, Valencia, CA, U.S.A.).
For DNA amplification, 5′-[…]-3′ was used as a forward primer, and 5′-[…]-3′ was used as a reverse primer.
The amplified PDE4B2A cDNA was cloned into pAcGFP1-N1, the mammalian expression mediator, between the EcoR1 and BamH1 restriction enzyme sites, which was transfected into E. coli DH5α cells using chemical transformation reagents (Invitrogen, Carlsbad, CA, U.S.A.).
Plasmids were isolated from the colonies with kanamycin using Plasmid Midi Kit (Qiagen, Valencia, CA, U.S.A.). Then, the plasmid cloned with PDE4B2A gene was transfected into HEK-293 cells (Korean Cell Line Bank, Seoul, Korea) using lipofectamine 3000 (Invitrogen).
The transfected cells were cultured in DMEM at 37° C. for 48 hours in a CO2 incubator. […] Upon completion of the culture, the fluorescence emission of HEK-293 cells was measured by confocal microscopy to perform quantitative analysis, and the results are shown in FIGS. 1 and 2.
In addition, the ratio of the surface cover area of GFP to the total cell surface area was measured using MetaMorph software, and the results are shown in FIG. 2.

[2] = test system: Nc/Nga mice treated with DNCB; assay: Relief of atopic symptoms in Nc/Nga mice treated with DNCB; type: in vivo, mouse; settings: for weight of the spleen: DNCB-treated mice; for lymph node size / number of scratches for 20 minutes / symptoms of hypertrophy and edema of incised dorsal skin / weight of the lymph node: compared to mouse treated with DNCB alone; for skin thickness: incised dorsal skin, DNCB alone 1.19 mm, control 0.45 mm; for side effects: mouse treated with the compound alone, applied on dorsal skin; for incidence of inflammation on the dorsal skin: treated together with DNCB, compared to DNCB only, last day of experiment; for dermatitis score at week 5: treated with DNCB, total of 12 points
Procedure: In order to confirm the atopic dermatitis alleviation effect of the compounds of Examples 1 and 25 according to the present invention, atopic symptom relief experiments were performed on the mice with atopic symptoms.
DNCB (dinitrochlorobenzene) was applied on the back of Nc/Nga mouse to induce atopic dermatitis-like symptoms.
As a carrier for treating DNCB, acetone-olive oil in which acetone and olive oil were mixed (3:1) was used. Six groups of mice were prepared as follows: mice treated with the carrier alone; mice treated with Example 1 compound, mice treated with Example 25 compound, mice treated with DNCB alone, mice treated with DNCB and Example 1 compound, and mice treated with DNCB and Example 25 compound.
Particularly, 2 days before the start of the experiment, hair of the dorsal skin of the mouse was removed. After 2 days after removing the hair, 150 μl of 1% DNCB was dissolved in a carrier and applied on the dorsal skin of the mouse. Four days later, the same solution was applied on the dorsal skin of the mouse once again. Then, 150 μl of 0.2% DNCB solution was applied on the dorsal skin of the mouse once a week for 5 weeks. The experimental group mice were applied with the compounds of Example 1 and Example 25 daily from the 6th day of the experiment to the end of the experiment.
The degree of atopic symptoms in the experimental group and control group mice was evaluated and quantified once a week for a period of 5 weeks. Scores were given as follows for the four items of erythema/bleeding, edema, threshing/corrosion, scaling/dryness, respectively: 1 (none); 2 (moderate); and 3 (serious). Each experimental group and control group was scored based on a total of 12 points.
In order to confirm the effect of the compounds according to the present invention on relieving itching, the number of scratches for 20 minutes of each mouse of the experimental group and control group was measured, and the results are shown graphically in FIG. 5(a), (b).
After completing the experiment, the physical changes were observed by incising the dorsal skin of the experimental group and control group mice. As a result, hypertrophy and edema were clearly observed in the mouse treated with DNCB alone.
In addition, to confirm the alleviating effect of the compounds according to the present invention on skin hypertrophy, the incised skin thickness was measured, and the results are shown graphically in FIG. 5(b).
In order to confirm the effect of the compounds according to the present invention, the lymph node of each mouse of the experimental group and control group was separated and observed. The lymph node is an interaction site between the antigen and immune cells, and since the size of the lymph node increases during the development of inflammatory symptoms, it is possible to confirm the presence or absence of inflammatory disease depending on the size of the lymph node. The photographs of the separated lymph node of each mouse of the experimental group and control group are shown in FIG. 6(a), and the weight of the lymph node and the spleen of each mouse of the experimental group and control group are shown in FIG. 6(b) and FIG. 6(c).

PDE4B enzyme = PDE4B enzyme (Homo sapiens (Human), UniProt Q07343); assay: PDE4B inhibitory activity, LANCE Ultra cAMP assay; type: biochemical; settings: 50% inhibition from cAMP to 5′AMP
Procedure: In order to evaluate the PDE4B inhibitory activity of the compounds according to the present invention, the following experiment was performed using LANCE Ultra cAMP assay kit (Perkin Elmer, U.S.A).
Particularly, 5 μl of the 3 nM cAMP dissolved reaction buffer was added to each reaction well (LANCE Ultra cAMP assay kit). Then, each example compound dilution solution (2.5 μl) and PDE4B enzyme (0.1 ng/well, BPS Biosciences, San Diego, U.S.A) were added to the well, followed by incubation for 1 hour at 37° C. Next, 5 μl of ULight-anti-cAMP detection reactant supplemented with 5 μl of Eu-cAMP tracer and 1 mM IBMX (LANCE Ultra cAMP assay kit) was added thereto, followed by incubation for 1 hour at 37° C.

[3] = test system: IL-4, IL-5, IFN-γ, IL-17 and IgE in mouse skin tissues; assay: Sandwich ELISA with mouse skin tissues; type: in vivo; settings: for expression of IL-4 (ELISA) / expression of IL-5 (ELISA) / expression of IL-17 (ELISA): DNCB; for expression of IgE (ELISA): treated with DNCB
Procedure: To confirm the effect of the compounds according to the present invention on the synthesis of DNCB-induced IgE and inflammatory mediators, ELISA (Enzyme-Linked ImmunoSorbent Assay) was performed with the control group and the experimental group treated with the compounds of Example 1 and Example 25.
FIG. 11(a)-FIG. 11(e) are graphs showing the expression levels of IL-4, IL-5, IFN-γ, IL-17 and IgE, respectively, shown when performing sandwich ELISA (Enzyme-Linked ImmunoSorbent Assay) with the mouse skin tissues.

[4] = test system: dorsal skin tissue of Nc/Nga mice treated with DNCB; assay: Observation of mouse dorsal skin tissue (H&E, toluidine blue, CD4+ cell staining); type: in vivo; settings: for expression of IFN-γ in CD4+ cells / expression of IL-4 of CD4+ cells / expression of IL-5 of CD4+ cells / expression of IL-17 of CD4+ cells: applied on the skin; for expression of IL-4 of CD4+ cells / expression of IL-5 of CD4+ cells / expression of IL-17 of CD4+ cells: compared to DNCB alone; for number of mast cells in skin tissue (toluidine blue): compared to mouse treated with DNCB alone; for skin structure of tissue sections (H&E): groups treated with the compound without DNCB; for epidermal hyperplasia and keratosis (H&E) / inflammatory cells in skin sections (H&E): treated with DNCB
Procedure: The dorsal skin samples were obtained from the experimental group and control group mice. The samples were fixed using 10% neutral buffered formalin and then embedded in paraffin. 4 μm thin tissue sections were prepared and stained with H & E (hematoxylin & eosin). […] In addition, the sections were stained with toluidine blue to investigate mast cell infiltration. Then, the stained tissue sections were photographed using NikonAX70 optical microscope (Tokyo, Japan).
In addition, the mouse tissue CD4+ cells were stained to confirm the expressions of IL-17, IFN-γ, IL-4 and IL-5.

[5] = test system: TNF-α secretion in human PBMC cells; assay: Inhibition of TNF-α synthesis in LPS-stimulated human PBMC cells; type: cell-based; settings: human PBMC cells stimulated using bacterial LPS
Procedure: In addition, to evaluate the inhibitory effect of the compounds of Example 1 and Example 25 on the synthesis of TNF-α, in vitro assay was performed. Particularly, after culturing human PBMC cells, the secretion of TNF-α was stimulated using bacterial LPS, and the expression level of TNF-α was measured.

[6] = 24 hours, compared to control group not-treated with any inhibitor
[7] = at the concentrations of 100 nM and 500 nM

PDE4B GFP fusion protein (human PDE4B2A), sequence (Q07343 other isoform, or with tags, fused parts or gaps): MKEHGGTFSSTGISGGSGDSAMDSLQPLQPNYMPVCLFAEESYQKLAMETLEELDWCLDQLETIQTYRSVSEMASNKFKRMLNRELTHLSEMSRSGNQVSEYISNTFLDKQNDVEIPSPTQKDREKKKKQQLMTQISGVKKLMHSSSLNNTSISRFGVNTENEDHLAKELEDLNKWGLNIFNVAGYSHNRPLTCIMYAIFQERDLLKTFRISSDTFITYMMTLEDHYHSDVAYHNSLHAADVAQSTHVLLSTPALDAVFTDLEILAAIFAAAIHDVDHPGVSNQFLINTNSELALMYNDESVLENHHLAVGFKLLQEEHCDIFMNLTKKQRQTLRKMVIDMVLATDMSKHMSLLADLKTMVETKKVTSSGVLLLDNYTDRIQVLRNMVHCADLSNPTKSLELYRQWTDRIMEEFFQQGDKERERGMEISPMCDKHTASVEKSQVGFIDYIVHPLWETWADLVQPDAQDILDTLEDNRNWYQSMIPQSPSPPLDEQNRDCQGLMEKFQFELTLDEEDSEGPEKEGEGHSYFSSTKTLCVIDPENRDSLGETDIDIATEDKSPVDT
PDE4B enzyme, sequence (Q07343 whole entry): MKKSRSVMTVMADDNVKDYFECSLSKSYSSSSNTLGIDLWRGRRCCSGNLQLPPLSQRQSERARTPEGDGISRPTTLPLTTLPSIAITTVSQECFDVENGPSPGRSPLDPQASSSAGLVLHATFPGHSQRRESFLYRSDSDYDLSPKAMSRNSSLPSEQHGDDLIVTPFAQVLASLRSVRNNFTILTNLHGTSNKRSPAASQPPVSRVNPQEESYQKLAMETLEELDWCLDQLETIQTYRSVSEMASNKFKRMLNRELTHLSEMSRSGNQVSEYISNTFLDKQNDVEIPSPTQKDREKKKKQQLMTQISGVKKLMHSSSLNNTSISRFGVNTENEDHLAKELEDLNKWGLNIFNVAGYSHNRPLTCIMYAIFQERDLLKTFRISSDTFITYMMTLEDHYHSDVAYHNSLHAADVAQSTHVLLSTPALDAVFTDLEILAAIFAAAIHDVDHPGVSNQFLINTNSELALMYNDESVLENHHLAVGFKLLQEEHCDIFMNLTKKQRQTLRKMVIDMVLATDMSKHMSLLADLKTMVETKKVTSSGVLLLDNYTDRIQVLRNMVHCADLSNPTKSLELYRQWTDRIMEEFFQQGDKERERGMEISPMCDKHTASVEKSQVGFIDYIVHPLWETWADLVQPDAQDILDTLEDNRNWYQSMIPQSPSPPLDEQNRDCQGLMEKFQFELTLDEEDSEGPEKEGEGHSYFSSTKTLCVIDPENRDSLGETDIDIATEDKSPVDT

COc1ccc(NC(=O)c2cnc(SC)nc2N2CCOCC2)cc1OC [Example 1, N-(3,4-dimethoxyphenyl)-2-(methylthio)-4-morpholinopyrimidine-5-carboxamide]
fluorescence intensity of PDE4B GFP fusion protein [1, 6]: relatively weak
fluorescence intensity of PDE4B GFP fusion protein [1, 7]: significantly reduced
weight of the spleen [2]: significantly reduced
lymph node size [2]: significantly reduced
number of scratches for 20 minutes [2]: significantly less
symptoms of hypertrophy and edema of incised dorsal skin [2]: no symptoms of hypertrophy and edema
weight of the lymph node [2]: significantly reduced
skin thickness [2]: 0.83 mm
side effects [2]: no side effects were observed
incidence of inflammation on the dorsal skin [2]: significantly reduced
dermatitis score at week 5 [2]: less than 3
IC50 (PDE4B enzyme): 31 nM
expression of IFN-γ (ELISA) [3]: high
expression of IL-4 (ELISA) [3]: significantly suppressed
expression of IL-5 (ELISA) [3]: significantly suppressed
expression of IL-17 (ELISA) [3]: significantly suppressed
expression of IgE (ELISA) [3]: significantly reduced
expression of IFN-γ in CD4+ cells [4]: activated
expression of IL-4 of CD4+ cells [4]: more suppressed
expression of IL-5 of CD4+ cells [4]: more suppressed
expression of IL-17 of CD4+ cells [4]: more suppressed
number of mast cells in skin tissue (toluidine blue) [4]: significantly reduced
skin structure of tissue sections (H&E) [4]: normal skin structure
epidermal hyperplasia and keratosis (H&E) [4]: significantly reduced
inflammatory cells in skin sections (H&E) [4]: almost no inflammatory cells
synthesis of TNF-α [5]: effectively inhibited

COc1ccc(-c2nc(C(F)(F)F)ncc2C(=O)Nc2ccncc2)cc1OC [Example 25, 4-(3,4-dimethoxyphenyl)-N-(pyridine-4-yl)-2-(trifluoromethyl)pyrimidine-5-carboxamide]
fluorescence intensity of PDE4B GFP fusion protein [1, 6]: relatively weak
fluorescence intensity of PDE4B GFP fusion protein [1, 7]: significantly reduced
weight of the spleen [2]: significantly reduced
lymph node size [2]: significantly reduced
number of scratches for 20 minutes [2]: significantly less
symptoms of hypertrophy and edema of incised dorsal skin [2]: no symptoms of hypertrophy and edema
weight of the lymph node [2]: significantly reduced
skin thickness [2]: 0.71 mm
side effects [2]: no side effects were observed
incidence of inflammation on the dorsal skin [2]: significantly reduced
dermatitis score at week 5 [2]: less than 3
IC50 (PDE4B enzyme): 15 nM
expression of IFN-γ (ELISA) [3]: high
expression of IL-4 (ELISA) [3]: significantly suppressed
expression of IL-5 (ELISA) [3]: significantly suppressed
expression of IL-17 (ELISA) [3]: significantly suppressed
expression of IgE (ELISA) [3]: significantly reduced
expression of IFN-γ in CD4+ cells [4]: activated
expression of IL-4 of CD4+ cells [4]: more suppressed
expression of IL-5 of CD4+ cells [4]: more suppressed
expression of IL-17 of CD4+ cells [4]: more suppressed
number of mast cells in skin tissue (toluidine blue) [4]: significantly reduced
skin structure of tissue sections (H&E) [4]: normal skin structure
epidermal hyperplasia and keratosis (H&E) [4]: significantly reduced
inflammatory cells in skin sections (H&E) [4]: almost no inflammatory cells
synthesis of TNF-α [5]: effectively inhibited
